Data taken from patent US11478551B2, “Long-acting adrenomedullin derivative” (University of Miyazaki, priority 2015, dated 2022).

Experiments:
[1] = system: vascular occlusion model rats; test: Vascular occlusion model, Morris water maze test; format: in vivo; details: 1 and 10 nmol/kg subcutaneous, rat
Procedure: Physiological saline was administered as a vehicle to a control group. Then, the bilateral vertebral arteries were permanently occluded under anesthesia. On the next day, the bilateral common carotid arteries were occluded for 30 minutes under anesthesia using a suture thread. Then, the suture thread was removed, and blood flow was restarted. The date of the bilateral common carotid artery occlusion was defined as the date of the vascular occlusion model preparation, i.e., day 0. 9 days after the model preparation, the rat was caused to swim in the Morris water maze in one trial (training). The hidden platform test was conducted at intervals of 4 trials/day for 5 days from 10 days after the model preparation. On the fifth day of the hidden platform test (14 days after the model preparation), the probe test was conducted 1 hour after the final trial.
The Morris water maze test was conducted using an experimental apparatus described below. A round pool having a diameter of 150 cm, a height of 45 cm, and a water depth of 30 cm was provided. A clear colorless platform having a diameter of 12 cm was positioned approximately 1 cm below the water surface in the round pool. The water temperature of the round pool was set to 23±1° C. Indirect lighting was disposed within the room having the experimental apparatus placed therein, and visual cues (calendar, ball, cube and striped sheet) for the animals were arranged therein. In the test period, this arrangement was always constant. A video tracking system (Smart, Panlab, S.L.U.) was used in measurement.
The hidden platform test was conducted by procedures described below. […] The swimming time to arrive at the platform from the start (escape latency) was measured. […]
The probe test was conducted by procedures described below. […], the swimming time in a zone having the platform placed therein was measured. The stay rate (%) was calculated according to an expression given below using the measured swimming time. […]

[2] = system: DSS-induced colitis models; test: Dextran sodium sulfate (DSS)-induced colitis model; format: in vivo; details: mouse
Procedure: The compound (8) was subcutaneously administered to the back of each mouse. On the day following the administration (day 0), colitis model preparation was started by administration of 3% DSS as drinking water for 7 days. […] Physiological saline was administered as a vehicle to a control group. The body weight and the form of stool were evaluated on days 3, 5 and 7 counted from the start date of the DSS administration (day 0) on the basis of the scores shown in Table 4.

Substance: GL-2-branched CH3O-PEG (60k)-CH2-^αNH-(h.AM (1-52)) [Compound (8)]
- death rate associated with the operation for the bilateral common carotid artery occlusion [1]: no significant difference
- escape latency in the hidden platform test as compared to the vehicle control group [1]: shortened
- stay rate in the probe test as compared to the vehicle control group [1]: significantly increased
- wet weight of the intestinal tract as compared to the vehicle control group ([2]; 5 nmol/kg subcutaneous): tendency to decrease
- length of the intestinal tract as compared to the vehicle control group ([2]; 25 nmol/kg subcutaneous): tendency to increase
- total score (weight loss, stool consistency, bleeding/mucous and bloody stool) ([2]; 5 and 25 nmol/kg subcutaneous, 3% DSS): significant decrease
